One may read the IC50 as the concentration needed to halve the response being measured.

For the assay, the target named is T1, hTRPV3 (Homo sapiens, UniProt Q8NET8).
T1 construct: The commercially available plasmid with the full-length cDNA of hTRPV3 (791 aa) (NM_001258205.2); host or cells: HEK293T
T1 sequence (Q8NET8 1-791 isoform Q8NET8-2): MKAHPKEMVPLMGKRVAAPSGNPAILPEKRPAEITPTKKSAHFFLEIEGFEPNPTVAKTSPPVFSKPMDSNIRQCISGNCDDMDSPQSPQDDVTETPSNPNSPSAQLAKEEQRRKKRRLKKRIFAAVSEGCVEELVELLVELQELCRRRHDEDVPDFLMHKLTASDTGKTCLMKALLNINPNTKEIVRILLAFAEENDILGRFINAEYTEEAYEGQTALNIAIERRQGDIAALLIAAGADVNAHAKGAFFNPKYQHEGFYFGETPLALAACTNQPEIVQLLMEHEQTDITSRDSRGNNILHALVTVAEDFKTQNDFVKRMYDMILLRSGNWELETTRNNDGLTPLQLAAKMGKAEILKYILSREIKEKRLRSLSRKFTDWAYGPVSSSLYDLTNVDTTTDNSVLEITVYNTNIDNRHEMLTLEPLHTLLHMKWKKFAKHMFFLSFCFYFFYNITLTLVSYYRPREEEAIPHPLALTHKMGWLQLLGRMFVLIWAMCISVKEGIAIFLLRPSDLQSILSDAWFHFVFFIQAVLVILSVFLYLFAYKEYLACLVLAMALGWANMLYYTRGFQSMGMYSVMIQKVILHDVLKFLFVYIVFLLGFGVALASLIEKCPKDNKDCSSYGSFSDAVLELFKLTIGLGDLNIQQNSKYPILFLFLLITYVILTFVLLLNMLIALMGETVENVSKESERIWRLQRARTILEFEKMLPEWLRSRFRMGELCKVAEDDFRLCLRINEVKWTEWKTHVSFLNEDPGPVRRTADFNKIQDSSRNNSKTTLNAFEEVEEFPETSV
Briefly: Whole-cell patch-clamp recording of hTRPV3 current in transfected HEK293T cells (2-APB induced). It is filed as cell-based. Particulars: current induced by 300 μM 2-APB, compounds tested up to 10 μM, room temperature. The essentials:
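IC50 comes from Hill fits, 0–100% bounds, of percent block of 2-APB-induced current, with compounds perfused at up to 10 μM. Currents elicited at +80/−80 mV (400-ms steps, 2-s interval, 0 mV hold), room temperature, symmetric NaCl/EDTA/HEPES pH 7.4 solutions. Cells: hTRPV3-transfected HEK293T, used 18 h after transfection.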
`COc1ncnc(OC)c1C(=O)Nc1nc2c(s1)C1(CCC(C(=O)OC(C)C)CC1)Oc1cc(C(F)(F)F)ccc1-2` (stereo not drawn) [compound 123, isopropyl 2-(4,6-dimethoxypyrimidine-5-carboxamido)-7-(trifluoromethyl)spiro[chromeno[4,3-d]thiazole-4,1′-cyclohexane]-4′-carboxylate] gave an IC50 of under 100 nM.
In turn, `CCC1(CC)Oc2cc(C)ccc2-c2nc(NC(=O)c3c(OC)ncnc3OC)sc21` [compound 124, N-(4,4-diethyl-7-methyl-4H-chromeno[4,3-d]thiazol-2-yl)-4,6-dimethoxypyrimidine-5-carboxamide] had a 50% inhibitory concentration (IC50) of 100 to 1000 nM.
The value for `COc1ncnc(OC)c1C(=O)Nc1nc2c(s1)C1(CCC(C(=O)NC(C)C)CC1)Oc1cc(C(F)(F)F)ccc1-2` (stereo not drawn) [compound 125, 2-(4,6-dimethoxypyrimidine-5-carboxamido)-N-isopropyl-7-(trifluoromethyl)spiro[chromeno[4,3-d]thiazole-4,1′-cyclohexane]-4′-carboxamide] was 1000 to 10000 nM.
The value for `COc1ncnc(OC)c1C(=O)Nc1nc2c(s1)C1(CCC(C(=O)N(C)Cc3ccccc3)CC1)Oc1cc(C(F)(F)F)ccc1-2` (stereo not drawn) [compound 126, N-benzyl-2-(4,6-dimethoxypyrimidine-5-carboxamido)-N-methyl-7-(trifluoromethyl)spiro[chromeno[4,3-d]thiazole-4,1′-cyclohexane]-4′-carboxamide] was 100 to 1000 nM.
The value for `COc1ncnc(OC)c1C(=O)Nc1nc2c(s1)C1(CCC(C(=O)N(C)C(C)C)CC1)Oc1cc(C(F)(F)F)ccc1-2` (stereo not drawn) [compound 127, 2-(4,6-dimethoxypyrimidine-5-carboxamido)-N-isopropyl-N-methyl-7-(trifluoromethyl)spiro[chromeno[4,3-d]thiazole-4,1′-cyclohexane]-4′-carboxamide] was 100 to 1000 nM; that for `CCOC(=O)[C@H]1CC[C@]2(CC1)Oc1cc(Br)ccc1-c1nc(NC(=O)c3c(OC)ncnc3OC)sc12` [compound 128] was 100 to 1000 nM; that for `CCOC(=O)[C@H]1CC[C@@]2(CC1)Oc1cc(Br)ccc1-c1nc(NC(=O)c3c(OC)ncnc3OC)sc12` [compound 129] was 100 to 1000 nM.
Turning to `CCOC(=O)[C@H]1CC[C@@]2(CC1)Oc1cc(C(C)C)ccc1-c1nc(NC(=O)c3c(OC)ncnc3OC)sc12` [compound 130], the concentration for half-maximal inhibition (IC50) lay in the range of 1000 to 10000 nM.
Next, `COc1ncnc(OC)c1C(=O)Nc1nc2c(s1)C1(CC(NC(=O)OC(C)(C)C)C1)Oc1cc(C(F)(F)F)ccc1-2` (stereo not drawn) [compound 131, tert-butyl(2-(4,6-dimethoxypyrimidine-5-carboxamido)-7-(trifluoromethyl)spiro[chromeno[4,3-d]thiazole-4,1′-cyclobutan]-3′-yl)carbamate]: 100 to 1000 nM; `COc1ncnc(OC)c1C(=O)Nc1nc2c(s1)C1(CN(C(=O)OC(C)(C)C)C1)Oc1cc(C(C)C)ccc1-2` [compound 132, tert-butyl 2′-(4,6-dimethoxypyrimidine-5-carboxamido)-7′-isopropylspiro[azetidine-3,4′-chromeno[4,3-d]thiazole]-1-carboxylate]: 100 to 1000 nM; `CCOC(=O)C1CC2(C1)Oc1cc(C(F)(F)F)ccc1-c1nc(NC(=O)c3c(OC)ncnc3OC)sc12` (stereo not drawn) [compound 133, ethyl 2-(4,6-dimethoxypyrimidine-5-carboxamido)-7-(trifluoromethyl)spiro[chromeno[4,3-d]thiazole-4,1′-cyclobutane]-3′-carboxylate]: under 100 nM.
Next, `COc1ncnc(OC)c1C(=O)Nc1nc2c(s1)C1(COC1)Oc1cc(Br)ccc1-2` [compound 134, N-(7-bromospiro[chromeno[4,3-d]thiazole-4,3′-oxetan]-2-yl)-4,6-dimethoxypyrimidine-5-carboxamide]: 100 to 1000 nM.
`COc1ncnc(OC)c1C(=O)Nc1nc2c(s1)C1(COC1)Oc1cc(C(C)C)ccc1-2` [compound 135, N-(7-isopropylspiro[chromeno[4,3-d]thiazole-4,3′-oxetan]-2-yl)-4,6-dimethoxypyrimidine-5-carboxamide] came in with a 50% inhibitory concentration (IC50) of under 100 nM.
Take `COc1ncnc(OC)c1C(=O)Nc1nc2c(s1)C1(CN(C(C)C)C1)Oc1cc(C(F)(F)F)ccc1-2` [compound 136, N-(1-isopropyl-7′-(trifluoromethyl)spiro[azetidine-3,4′-chromeno[4,3-d]thiazol]-2′-yl)-4,6-dimethoxypyrimidine-5-carboxamide]: the IC50 was under 100 nM.
Next, `COc1ncnc(OC)c1C(=O)Nc1nc2c(s1)C1(COC1)Oc1cc(C#N)ccc1-2` [compound 137, N-(7-cyanospiro[chromeno[4,3-d]thiazole-4,3′-oxetan]-2-yl)-4,6-dimethoxypyrimidine-5-carboxamide]: at least 10000 nM.
Next, `COc1ncnc(OC)c1C(=O)Nc1nc2c(s1)C1(COC1)Oc1cc(C3CC3)ccc1-2` [compound 138, N-(7-cyclopropylspiro[chromeno[4,3-d]thiazole-4,3′-oxetan]-2-yl)-4,6-dimethoxypyrimidine-5-carboxamide]: 100 to 1000 nM.
The compound `COc1ncnc(OC)c1C(=O)Nc1nc2c(s1)C1(COC1)Oc1cc(C(C)(C)O)ccc1-2` [compound 139, N-(7-(2-hydroxypropan-2-yl)spiro[chromeno[4,3-d]thiazole-4,3′-oxetan]-2-yl)-4,6-dimethoxypyrimidine-5-carboxamide] gave a half-inhibitory concentration (IC50) of at least 10000 nM.
The value for `COc1ncnc(OC)c1C(=O)Nc1nc2c(s1)C1(COC1)Oc1cc(C(C)(C)C#N)ccc1-2` [compound 140, N-(7-(2-cyanopropan-2-yl)spiro[chromeno[4,3-d]thiazole-4,3′-oxetan]-2-yl)-4,6-dimethoxypyrimidine-5-carboxamide] was 1000 to 10000 nM.
Compound `COc1ncnc(OC)c1C(=O)Nc1nc2c(s1)-c1ccc(C(F)(F)F)cc1OC21CCS(=O)(=O)CC1` [compound 141, N-(1′,1′-dioxido-7-(trifluoromethyl)-2′,3′,5′,6′-tetrahydrospiro[chromeno[3,4-d]thiazole-4,4′-thiopyran]-2-yl)-4,6-dimethoxypyrimidine-5-carboxamide] yielded a half-inhibitory concentration (IC50) of 1000 to 10000 nM.
The value for `CCC1(CC)Oc2cc(C(F)(F)F)ccc2-c2nc(NC(=O)c3c(OC)cccc3OC)sc21` [compound 142, N-(4,4-diethyl-7-(trifluoromethyl)-4H-chromeno[4,3-d]thiazol-2-yl)-2,6-dimethoxybenzamide] was at least 10000 nM; that for `CCC1(CC)Oc2cc(C(F)(F)F)ccc2-c2nc(N3CN(C)c4ncnc(OC)c4C3=O)sc21` [compound 143, 3-(4,4-diethyl-7-(trifluoromethyl)-4H-chromeno[4,3-d]thiazol-2-yl)-5-methoxy-1-methyl-2,3-dihydropyrimido[4,5-d]pyrimidin-4 (1H)-one] was at least 10000 nM.
With `COc1ncnc(O)c1C(=O)Nc1nc2c(s1)C1(COC1)Oc1cc(C(C)C)ccc1-2` [compound 144, 4-hydroxy-N-(7-isopropylspiro[chromeno[4,3-d]thiazole-4,3′-oxetan]-2-yl)-6-methoxypyrimidine-5-carboxamide], the half-maximal inhibitory concentration (IC50) is at least 10000 nM.
Next, `COc1ncnc(OC)c1C(=O)Nc1nc2c(s1)C1(CN(C(C)C)C1)Oc1cc(C(C)C)ccc1-2` [compound 145, N-(1,7′-diisopropylspiro[azetidine-3,4′-chromeno[4,3-d]thiazol]-2′-yl)-4,6-dimethoxypyrimidine-5-carboxamide]: 100 to 1000 nM; `COc1ncnc(OC)c1C(=O)Nc1nc2c(s1)C1(CN(C(C)C)C1)Oc1cc(Br)ccc1-2` [compound 146, N-(7′-bromo-1-isopropylspiro[azetidine-3,4′-chromeno[4,3-d]thiazol]-2′-yl)-4,6-dimethoxypyrimidine-5-carboxamide]: under 100 nM.
Next, `COc1ncnc(OCCN(C)C)c1C(=O)Nc1nc2c(s1)C1(COC1)Oc1cc(C(C)C)ccc1-2` [compound 147, 4-(2-(dimethylamino)ethoxy)-N-(7-isopropylspiro[chromeno[4,3-d]thiazole-4,3′-oxetan]-2-yl)-6-methoxypyrimidine-5-carboxamide]: 1000 to 10000 nM; `COc1ncnc(OC)c1C(=O)Nc1nc2c(s1)C1(CN(C(C)C)C1)Oc1cc(C#N)ccc1-2` [compound 148, N-(7′-cyano-1-isopropylspiro[azetidine-3,4′-chromeno[4,3-d]thiazol]-2′-yl)-4,6-dimethoxypyrimidine-5-carboxamide]: 100 to 1000 nM; `COc1ncnc(OC)c1C(=O)Nc1nc2c(s1)C1(CN(C3CC3)C1)Oc1cc(C(F)(F)F)ccc1-2` [compound 149, N-(1-cyclopropyl-7′-(trifluoromethyl)spiro[azetidine-3,4′-chromeno[4,3-d]thiazol]-2′-yl)-4,6-dimethoxypyrimidine-5-carboxamide]: under 100 nM.

Source of the values: patent publication US20260217697A1, “COMPOUNDS COMPRISING HETEROARYL RINGS AND COMPOSITIONS AND METHODS THEREOF” (lonGen Therapeutics Co., Ltd., priority 2022, published 2026).
